Test results: paper PMC7400108, “Squalamine and Aminosterol Mimics Inhibit the Peptidoglycan Glycosyltransferase Activity of PBP1b” (Antibiotics, 2020)
Several values for one entry are separate records, joined by “and”; a condition that tells them apart may be missing. Equal entries are not always repeated. Entries after “also recorded” stand apart in the source; their conditions may differ. Where two headings read alike, the source gives them in different places.

Key:
E. coli PBP1b [1] = molecular target: T1, E. coli PBP1b (Escherichia coli, UniProt P02919); assay: GTase inhibition assay: residual activity and IC50 of PBP1b (radioactive lipid II endpoint TLC assay, dansyl-lipid II continuous fluorescence assay); type: biochemical; conditions: for remaining activity at 800 µM: read-out: RA % (0.8 mM), residual GTase activity of PBP1b, compound 0.8 mM (800 µM); for remaining activity at 800 µM / RA % (0.4 mM), residual GTase activity of PBP1b / RA % (0.8 mM), residual GTase activity of PBP1b: compared to nontreated control; for RA % (0.4 mM), residual GTase activity of PBP1b: compound 0.4 mM (400 µM); for RA % (0.8 mM), residual GTase activity of PBP1b: compound 0.8 mM (800 µM)
T1 construct: PBP1bγ(M46-N844) was purified as previously described; made in house
Description: The continuous fluorescence GTase activity assay of PBP1b was performed using dansyl lipid II as substrate as described.
The end-point assay, based on radiolabeled lipid II ([^14C]lipid II), was performed in 30 µL in the same conditions as the fluorescence assay using 4 µM [^14C]lipid II (0.06 µCi/nmol) instead of the fluorescent substrate and by omitting the muramidase. The reaction was incubated 15 min at 30 °C, stopped by heating at 80 °C for 10min and the products were separated by thin-layer chromatography (TLC) on silica gel plates in 2-propanol–ammonium hydroxide (25%)–H2O (6:3:1; v/v/v).
The GTase inhibition assay was carried out by measuring the residual activity (RA) of E. coli PBP1b in the presence of 400 and 800 μM compounds. All the assays were repeated at least three times. The IC50 values were determined for the active compounds using variable concentrations of inhibitor (0−1000 μM) by fitting the data using GraphPad Prism 6.0 software.

[2] = Fluorescence anisotropy direct binding of compounds to the probe in the absence of the protein; conditions: NBD-lipid II 0.33 µM, no protein
Description: (§1) FA assay was performed as previously described. Briefly, fixed concentrations of NBD-lipid II (0.33 µM) and PBP1b (~1 µM) in the 25 mM Tris–HCl pH 7.5, NaCl 0.1 M, CHAPS 0.14% w/v, were mixed with serial dilutions of the compounds in 384-well plates. Measurement were performed using an Infinite F Plex (Tecan, Männedorf, Switzerland) microplate reader equipped with polarization filters with excitation and emission wavelengths at 485 and 535 nm respectively. All the experiments were performed in triplicates. For direct binding evaluation of the compounds with the probe, the experiments were performed in the same condition in the absence of the protein. FA values in millianisotropy units (mA) were plotted as a function of compound concentrations in µM as previously described.

PBP1b = molecular target: T2, PBP1b (Escherichia coli, UniProt P02919); assay: Fluorescence anisotropy competition assay, displacement of NBD-lipid II probe from PBP1b; type: binding; conditions: NBD-lipid II 0.33 µM, PBP1b ~1 µM, serial dilutions of compound
T2 construct: PBP1bγ(M46-N844) was purified as previously described; made in house
Description: as §1

E. coli PBP1b [3] = molecular target: T1, E. coli PBP1b; assay: GTase inhibition assay: residual activity and IC50 of PBP1b (radioactive lipid II endpoint TLC assay, dansyl-lipid II continuous fluorescence assay); type: biochemical; conditions: up to 5 mM (1-5 mM), below CMC
E. coli = system: E. coli; design: method as in PMID 31063379; conditions: cited from earlier work
S. aureus = system: S. aureus; design: method as in PMID 31063379; conditions: cited from earlier work
[4] = mean of three experiments ± s.d.
[5] = variable inhibitor concentrations 0-1000 µM, mean of three experiments ± s.d., read-out: IC50, GTase activity of PBP1b

T1 sequence (P02919 46-844): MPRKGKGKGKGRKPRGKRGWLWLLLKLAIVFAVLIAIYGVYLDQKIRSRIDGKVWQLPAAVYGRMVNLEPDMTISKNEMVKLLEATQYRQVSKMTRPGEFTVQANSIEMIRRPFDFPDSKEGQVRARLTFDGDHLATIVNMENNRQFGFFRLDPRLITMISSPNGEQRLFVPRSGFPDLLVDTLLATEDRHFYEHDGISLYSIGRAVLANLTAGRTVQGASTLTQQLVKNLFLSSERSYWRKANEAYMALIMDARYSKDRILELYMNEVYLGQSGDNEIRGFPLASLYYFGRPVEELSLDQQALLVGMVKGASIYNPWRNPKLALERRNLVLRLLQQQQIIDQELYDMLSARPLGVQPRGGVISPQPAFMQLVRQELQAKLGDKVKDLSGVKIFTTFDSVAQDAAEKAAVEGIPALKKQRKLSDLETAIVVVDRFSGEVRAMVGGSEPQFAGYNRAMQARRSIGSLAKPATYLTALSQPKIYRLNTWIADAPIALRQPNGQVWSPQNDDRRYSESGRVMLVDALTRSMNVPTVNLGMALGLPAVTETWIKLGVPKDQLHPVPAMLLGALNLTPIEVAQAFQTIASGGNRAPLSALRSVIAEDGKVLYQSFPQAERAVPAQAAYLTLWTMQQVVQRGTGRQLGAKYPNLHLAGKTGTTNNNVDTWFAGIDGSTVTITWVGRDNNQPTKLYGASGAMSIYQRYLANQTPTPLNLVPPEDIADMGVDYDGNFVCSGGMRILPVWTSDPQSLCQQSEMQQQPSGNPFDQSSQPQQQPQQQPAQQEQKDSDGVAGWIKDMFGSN
T2 sequence (P02919 46-844): as above

Compound	Inhibition of GTase activity of PBP1b (in words) (E. coli PBP1b [1]; concentration not given)	remaining activity at 800 µM (E. coli PBP1b [1]; [4])	RA % (0.4 mM), residual GTase activity of PBP1b (E. coli PBP1b [1]; [4])	IC50 (E. coli PBP1b [1]; [5])	other results
C[C@H](NCCCCN)[C@H]1CCC2C3CCC4=C[C@@H](NCCCCN)CC[C@]4(C)C3CC[C@@]21C (stereo partly drawn) [Compound 13]	absence of activity	100%	–	–	Inhibition of GTase activity of PBP1b (in words) (E. coli PBP1b [1]; 0.8 mM compound, radioactive lipid II, endpoint TLC assay): inactive
C[C@]12CCC3c4ccc(O)cc4CCC3C1CC[C@@H]2NCCCCN (stereo partly drawn) [Compound 15, (13S,17S)-17-((4-aminobutyl)amino)-13-methyl-7,8,9,11,12,13,14,15,16,17-decahydro-6H-cyclopenta[a]phenanthren-3-ol]	absence of activity	105 ± 3%	–	–	Direct interaction between fluorescent lipid II and compound (FA) [2]: no significant interaction; Competition with lipid II for binding to PBP1b (change of FA of the probe) (PBP1b): no effect; also recorded: does not affect the FA
CC(C)CCCC(C)C1CCC2C3C(NCCCCN)C=C4CC(O)CCC4(C)C3CCC12C (stereo not drawn) [Compound 2]	–	–	1.2 ± 0.3%	114 ± 6 µM	RA % (0.8 mM), residual GTase activity of PBP1b (E. coli PBP1b [1]; [4]): 0.3 ± 0.1%
CC(C)CCC[C@@H](C)[C@H]1CCC2C3C(CC[C@@]21C)[C@@]1(C)CC[C@H](O)CC1C[C@@H]3NCCCN (stereo partly drawn) [Compound 4]	–	4 ± 1%	39 ± 2%	303 ± 15 µM	–
CC(C)CCC[C@@H](C)[C@H]1CCC2C3C[C@@H](NCCCCN)C4C[C@@H](O)CC[C@]4(C)C3CC[C@@]21C (stereo partly drawn) [Compound 5, 6β-(1,4-diaminobutane)-cholestan-3β-ol]	–	3 ± 1%	16 ± 1.4%	221 ± 26 µM	–
CC(C)CCC[C@@H](C)[C@H]1CCC2C3C(CC[C@@]21C)[C@@]1(C)CC[C@H](O)CC1=C[C@@H]3NCCCNCCCCNCCCN (stereo partly drawn) [Compound 3]	–	8.5 ± 3.1%	16 ± 2%	220 ± 10 µM	–
C[C@H](CCC(=O)NCCC[N+](C)(C)CCCS(=O)(=O)[O-])[C@H]1CCC2C3C(C[C@H](O)[C@@]21C)[C@@]1(C)CC[C@H](O)CC1C[C@H]3O (stereo partly drawn) [CHAPS]	–	–	–	–	Inhibition of PBP1b GTase activity (in words) (E. coli PBP1b [3]): no inhibition
CC(=O)[C@H]1CC[C@H]2[C@@H]3CCC4=CC(=O)CC[C@]4(C)[C@H]3CC[C@]12C [Compound 12, progesterone, reference compound]	do not inhibit	98 ± 1%	–	–	–
CC(C)[C@@H](CC[C@@H](C)[C@H]1CC[C@H]2[C@@H]3[C@H](O)C[C@H]4C[C@@H](NCCCNCCCCN)CC[C@]4(C)[C@H]3CC[C@]12C)OS(=O)(=O)O [Squalamine (1), Squalamine]	–	1.1 ± 0.6%	6 ± 2%	291 ± 26 µM	MIC (E. coli): ~ 3 µg/mL; Direct interaction between fluorescent lipid II and compound (FA) [2]: no significant interaction; Competition with lipid II for binding to PBP1b (change of FA of the probe) (PBP1b): able to compete; also recorded: decrease of the FA; MIC (S. aureus): ~ 3 µg/mL
CC(C)CCC[C@@H](C)[C@H]1CCC2C3C[C@@H](NCCCNCCCCNCCCN)C4C[C@@H](O)CC[C@]4(C)C3CC[C@@]21C (stereo partly drawn) [Compound 6, 6β-(spermine)-cholestan-3β-ol]	–	0.8 ± 0.4%	3.9 ± 0.1%	–	Direct interaction between fluorescent lipid II and compound (FA) [2]: no significant interaction; Competition with lipid II for binding to PBP1b (change of FA of the probe) (PBP1b): able to compete; also recorded: decrease of the FA; IC50 (E. coli PBP1b [1]): 111 ± 6 µM
CC(C)CCCC(C)C1CCC2C3C(NCCCCN)C=C4CC(O)CCC4(C)C3CCC12C (stereo not drawn) [Compound 9]	almost inactive	–	–	–	RA % (0.8 mM), residual GTase activity of PBP1b (E. coli PBP1b [1]; [4]): 98% and 98 ± 1%
N1,N1’-((3S,7R,10R,13R,17R)-10,13-dimethyl-17-((R)-5-methylhexan-2-yl)-tetradecahydro-1H-cyclopenta[a]phenanthrene-3,7-diyl)bis(pentane-1,5-diamine) [Compound 7]	–	–	12.5 ± 4.4%	229 ± 17 µM	RA % (0.8 mM), residual GTase activity of PBP1b (E. coli PBP1b [1]; [4]): 1.5 ± 0.8%
